Like-named read-outs stand apart in the source and are kept apart here.
Key:
OVCAR-8 = test: Cytotoxicity (GI50) assay, OVCAR-8; assay type: cell-based, human
NCI/ADR-RES = test: Cytotoxicity (GI50) assay, NCI/ADR-RES; assay type: cell-based, human; settings: Homo sapiens, NCI/ADR-RES, read-out: Cancer cell lines GI50, NCI/ADR-RES
MDA-MB-435 = test: Cytotoxicity (GI50) assay, MDA-MB-435; assay type: cell-based, human
MCF-7 = test: Cytotoxicity (GI50) assay, MCF-7; assay type: cell-based, human
MES SA DX = test: Cytotoxicity assay (CellTiter-Glo), MES SA DX; assay type: cell-based, human; settings: Homo sapiens, read-out: Cancer cell lines IC50, MES SA DX
Tubulin = Tubulin assembly induction; assay type: biochemical
SNB-75 = test: Cytotoxicity (GI50) assay, SNB-75; assay type: cell-based, human
MES SA = test: Cytotoxicity assay (CellTiter-Glo), MES SA; assay type: cell-based, human; settings: MES-SA, read-out: Cancer cell lines IC50, MES SA
HEK 293T = test: Cytotoxicity assay (CellTiter-Glo), HEK 293T; assay type: cell-based; settings: Homo sapiens, 72 h, read-out: Cancer cell lines IC50, HEK 293T
[1] = Homo sapiens, OVCAR-8, read-out: Cancer cell lines GI50, OVCAR-8
[2] = Homo sapiens, MDA-MB-435, read-out: Cancer cell lines GI50, MDA-MB-435
[3] = Homo sapiens, MCF7, read-out: Cancer cell lines GI50, MCF-7
[4] = Homo sapiens, SNB-75, read-out: Cancer cell lines GI50, SNB-75

| SMILES | GI50 (OVCAR-8; [1]) [nM] | GI50 (NCI/ADR-RES) [nM] | GI50 (MDA-MB-435; [2]) [nM] | GI50 (MCF-7; [3]) [nM] | IC50 (MES SA DX; MES-SA, 72 h) [nM] | EC50 (Tubulin; […]) [nM] | GI50 (SNB-75; [4]) [nM] | IC50 (MES SA; Homo sapiens, 72 h) [nM] | IC50 (HEK 293T) [nM] | EC50 (Tubulin) [nM] | GI50 (OVCAR-8; OVCAR-8, human ovarian cancer cell line, read-out: Cancer cell lines GI50, OVCAR-8) [nM] | GI50 (NCI/ADR-RES; highly drug resistant human ovarian cancer cell line) [nM] | GI50 (MDA-MB-435; MDA-MB-435, human melanoma cell line, read-out: Cancer cell lines GI50, MDA-MB-435) [nM] | GI50 (MCF-7; MCF7, human breast cancer cell line, concentration required to decrease cell growth by 50%, read-out: Cancer cell lines GI50, MCF-7) [nM] | IC50 (MES SA DX; MES SA cell line with marked multidrug resistance, 72 hours, CellTiter-Glo) [nM] | GI50 (SNB-75; SNB-75, human glioblastoma cell line, read-out: Cancer cell lines GI50, SNB-75) [nM] | IC50 (MES SA; human uterine sarcoma cell line, 72 hours, CellTiter-Glo) [nM] |
| --- | --- | --- | --- | --- | --- | --- | --- | --- | --- | --- | --- | --- | --- | --- | --- | --- | --- |
| C/C(=C\c1csc(C)n1)[C@@H]1C[C@@H]2O[C@]2(C)CCC[C@H](C)[C@H](O)[C@@H](C)C(=O)C(C)(C)[C@@H](O)CC(=O)O1 [compound 2, epothilone B, reference compound] | 15 | 19 | 7 | 9.2 | 1.16 | […] | 8 | 0.28 | 0.26 | – | – | – | – | – | – | – | – |
| CC1=CCC(C(C)=Cc2csc(C)n2)OC(=O)CC(O)C(C)(C)C(=O)C(C)C(O)C(C)CCC1 (stereo not shown) [compound 4, epothilone D, reference compound] | 13 | 17 | – | 14 | 9.7 | – | – | 6.84 | 3.55 | 18000 | – | – | – | – | – | – | – |
| C/C(=C\c1csc(C)n1)[C@@H]1C[C@@H]2N[C@@H]2CCC[C@H](C)[C@H](O)[C@@H](C)C(=O)C(C)(C)[C@@H](O)CC(=O)O1 [compound 8, 12,13-aziridinyl epothilone A, reference compound] | 5.5 | 38 | – | 2.5 | 16.9 | > 40000 | – | 1.14 | 0.95 | – | – | – | – | – | – | – | – |
| C/C(=C\c1csc(C)n1)[C@@H]1C[C@H]2[C@@H](CCC[C@H](C)[C@H](O)[C@@H](C)C(=O)C(C)(C)[C@@H](O)CC(=O)O1)N2CCO (stereo partly drawn) [compound 9, (1S,3S,7S,10R,11S,12S,16R)-7,11-Dihydroxy-17-(2-hydroxyethyl)-8,8,10,12-tetramethyl-3-[(1E)-1-(2-methyl-1,3-thiazol-4-yl)prop-1-en-2-yl]-4-oxa-17-azabicyclo[14.1.0]heptadecane-5,9-dione, reference compound] | 3 | – | – | 2 | 15.7 | 1900 | – | 8.01 | 0.67 | – | – | – | – | – | – | – | – |
| C/C(=C\c1coc(C)n1)[C@@H]1C[C@@H]2N(CCO)[C@]2(C)CCC[C@H](C)[C@H](O)[C@@H](C)C(=O)C(C)(C)[C@@H](O)CC(=O)O1 (stereo partly drawn) [compound 16, (1S,3S,7S,10R,11S,12S,16R)-7,11-Dihydroxy-17-(2-hydroxyethyl)-8,8,10,12,16-pentamethyl-3-[(1E)-1-(2-methyl-1,3-oxazol-4-yl)prop-1-en-2-yl]-4-oxa-17-azabicyclo[14.1.0]heptadecane-5,9-dione] | 39 | 190 | 11 | 17 | 79.4 | 38000 | 19 | 2.71 | 0.95 | – | – | – | – | – | – | – | – |
| CSc1nc(/C=C(\C)[C@@H]2C[C@@H]3N(CCO)[C@]3(C)CCC[C@H](C)[C@H](O)[C@@H](C)C(=O)C(C)(C)[C@@H](O)CC(=O)O2)co1 (stereo partly drawn) [compound 17, (1S,3S,7S,10R,11S,12S,16R)-7,11-Dihydroxy-17-(2-hydroxyethyl)-8,8,10,12,16-pentamethyl-3-{(1E)-1-[2-(methylsulfanyl)-1,3-oxazol-4-yl]prop-1-en-2-yl}-4-oxa-17-azabicyclo[14.1.0]-heptadecane-5,9-dione] | 25 | – | 3.5 | 7.5 | 1.11 | 4000 ± 1000 | 13 | 0.02 | 0.05 | – | – | – | – | – | – | – | – |
| CSc1nc(/C=C(\C)[C@@H]2C[C@@H]3N(CCOC(C)=O)[C@]3(C)CCC[C@H](C)[C@H](OC(C)=O)[C@@H](C)C(=O)C(C)(C)[C@@H](OC(C)=O)CC(=O)O2)co1 (stereo partly drawn) [compound 18, (1S,3S,7S,10R,11S,12S,16R)-17-(2-Acetoxyethyl)-8,8,10,12,16-pentamethyl-3-{(1E)-1-[2-(methylsulfanyl)-1,3-oxazol-4-yl]prop-1-en-2-yl}-5,9-dioxo-4-oxa-17-azabicyclo[14.1.0]-heptadecane-7,11-diyl diacetate] | 290 | 2300 | 120 | 1100 | 373 | > 60000 | 290 | 116 | 17.9 | – | – | – | – | – | – | – | – |
| C/C(=C\c1csc(CCO)n1)[C@@H]1C[C@@H]2N(CCO)[C@]2(C)CCC[C@H](C)[C@H](O)[C@@H](C)C(=O)C(C)(C)[C@@H](O)CC(=O)O1 (stereo partly drawn) [compound 19, (1S,3S,7S,10R,11S,12S,16R)-7,11-Dihydroxy-17-(2-hydroxyethyl)-3-{(1E)-1-[2-(2-hydroxyethyl)-1,3-thiazol-4-yl]prop-1-en-2-yl}-8,8,10,12,16-pentamethyl-4-oxa-17-azabicyclo-[14.1.0]heptadecane-5,9-dione] | 38 | 4800 | 12 | 40 | > 1000 | > 60000 | 36 | 4.98 | 3.39 | – | – | – | – | – | – | – | – |
| C/C(=C\c1csc(-c2nc(C)cs2)n1)[C@@H]1C[C@@H]2N(CCO)[C@]2(C)CCC[C@H](C)[C@H](O)[C@@H](C)C(=O)C(C)(C)[C@@H](O)CC(=O)O1 (stereo partly drawn) [compound 22, (1S,3S,7S,10R,11S,12S,16R)-7,11-Dihydroxy-17-(2-hydroxyethyl)-8,8,10,12,16-pentamethyl-3-[(1E)-1-(4′-methyl-2,2′-bi-1,3-thiazol-4-yl)prop-1-en-2-yl]-4-oxa-17-azabicyclo[14.1.0]-heptadecane-5,9-dione] | 18 | 240 | 4 | 7.5 | 392 | 17000 | 18 | 1.86 | 1.55 | – | – | – | – | – | – | – | – |
| C/C(=C\c1ccn(Cn2cccn2)n1)[C@@H]1C[C@@H]2N(CCO)[C@]2(C)CCC[C@H](C)[C@H](O)[C@@H](C)C(=O)C(C)(C)[C@@H](O)CC(=O)O1 (stereo partly drawn) [compound 25, (1S,3S,7S,10R,11S,12S,16R)-7,11-Dihydroxy-17-(2-hydroxyethyl)-8,8,10,12,16-pentamethyl-3-{(1E)-1-[1-(1H-pyrazol-1-ylmethyl)-1H-pyrazol-3-yl]prop-1-en-2-yl}-4-oxa-17-azabicyclo-[14.1.0]heptadecane-5,9-dione] | 130 | > 5000 | 19 | 32 | > 2500 | > 60000 | 24 | 10.3 | 27.7 | – | – | – | – | – | – | – | – |
| CSc1nc(/C=C(\C)[C@@H]2C[C@@H]3N(CCOC(C)=O)[C@]3(C)CCC[C@H](C)[C@H](O)[C@@H](C)C(=O)C(C)(C)[C@@H](O)CC(=O)O2)cs1 (stereo partly drawn) [compound 36, 2-[(1S,3S,7S,10R,11S,12S,16R)-7,11-Dihydroxy-8,8,10,12,16-pentamethyl-3-{(1E)-1-[2-(methylsulfanyl)-1,3-thiazol-4-yl]prop-1-en-2-yl}-5,9-dioxo-4-oxa-17-azabicyclo[14.1.0]-heptadec-17-yl]ethyl acetate] | 18 | – | 3.5 | 5.5 | 0.86 | 4000 | 23 | 0.29 | 0.07 | – | – | – | – | – | – | – | – |
| CSc1nc(/C=C(\C)[C@@H]2C[C@@H]3N(CC4CC4)[C@]3(C)CCC[C@H](C)[C@H](O)[C@@H](C)C(=O)C(C)(C)[C@@H](O)CC(=O)O2)cs1 (stereo partly drawn) [compound 38, (1S,3S,7S,10R,11S,12S,16R)-17-(Cyclopropylmethyl)-7,11-dihydroxy-8,8,10,12,16-pentamethyl-3-{(1E)-1-[2-(methylsulfanyl)-1,3-thiazol-4-yl]prop-1-en-2-yl}-4-oxa-17-azabicyclo-[14.1.0]heptadecane-5,9-dione] | – | – | – | – | – | 5100 | – | – | – | – | 15 | 18 | 9.5 | 18 | 1.26 | 16 | 0.056 |
| C#CCCN1[C@H]2C[C@@H](/C(C)=C/c3csc(SC)n3)OC(=O)C[C@H](O)C(C)(C)C(=O)[C@H](C)[C@@H](O)[C@@H](C)CCC[C@]21C (stereo partly drawn) [compound 39, (1S,3S,7S,10R,11S,12S,16R)-17-(But-3-yn-1-yl)-7,11-dihydroxy-8,8,10,12,16-pentamethyl-3-{(1E)-1-[2-(methylsulfanyl)-1,3-thiazol-4-yl]prop-1-en-2-yl}-4-oxa-17-azabicyclo[14.1.0]heptadecane-5,9-dione] | 18 | – | 3.5 | 30 | 0.45 | 3500 | 31 | 0.23 | 0.09 | – | – | – | – | – | – | – | – |

Reference: US20210238187A1, “AZIRIDINE CONTAINING EPOTHILONE ANALOGS, METHODS OF SYNTHESIS, METHODS OF TREATMENT, AND DRUG CONJUGATES” (WILLIAM MARSH RICE UNIVERSITY, priority 2017, published 2021)
